# ± gives the standard deviation of the averaged measurements.
# Assays:
# [1] = compound: T1, C=CC(=O)Nc1cc2c(Nc3ccc(F)c(Cl)c3)ncnc2cc1OCCCN1CCOCC1 [CANERTINIB]; assay: surviving fraction relative to DMSO-only wells; higher = less growth inhibition; conditions: exposure time: 5 days
# Method in brief: (§1)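 A line counted only if its three screens reached replicate Pearson r >0.7 and median Z' >0.3. Tumour cells in log phase were seeded at 250–500 per well in 384-well plates and, after 24 hours, kept in continuous contact with inhibitors at 0.5, 1, 5, 10, 50, 100, 500 and 1000 nM for five days. Surviving fraction was taken from CellTiter-Glo luminescence relative to the median of DMSO-only wells.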
# [2] = compound: T2, CC1(C)CC(=O)c2c(C(F)(F)F)nn(-c3ccc(C(N)=O)c(N[C@H]4CC[C@H](OC(=O)CN)CC4)c3)c2C1 [SNX-5422]; assay: as above; conditions: exposure time: 5 days
# Method in brief: as §1
# [3] = compound: T3, CCCCCCCCCCCCCCCC(=O)Nc1ccn([C@@H]2O[C@H](CO)[C@@H](O)[C@@H]2C#N)c(=O)n1 [SAPACITABINE]; assay: as above; conditions: exposure time: 5 days
# Method in brief: as §1
# [4] = compound: T4, CC[C@@H]1C(=O)N(C)c2cnc(Nc3ccc(C(=O)NC4CCN(C)CC4)cc3OC)nc2N1C1CCCC1 [BI-2536]; assay: as above; conditions: exposure time: 5 days
# Method in brief: as §1
# [5] = compound: T5, CN(C)C/C=C/C(=O)Nc1cc2c(Nc3ccc(F)c(Cl)c3)ncnc2cc1O[C@H]1CCOC1 [AFATINIB]; assay: as above; conditions: exposure time: 5 days
# Method in brief: as §1
# [6] = compound: T6, CNC(=O)c1ccc(N2C(=S)N(c3ccc(C#N)c(C(F)(F)F)c3)C(=O)C2(C)C)cc1F [MDV3100]; assay: as above; conditions: exposure time: 5 days
# Method in brief: as §1
# [7] = compound: Cn1cc(C2=Nc3cc(NC(=O)C(N)C4CCCCC4)cc4c3C2=CNNC4=O)cn1; assay: as above; conditions: exposure time: 5 days
# Method in brief: as §1
# [8] = compound: T7, Nc1nc2[nH]cnc2c(=S)[nH]1 [TIOGUANINE]; assay: as above; conditions: exposure time: 5 days
# Method in brief: as §1
# [9] = compound: T1, CANERTINIB; assay: area under dose-response curve of surviving fraction (unscaled, Aref=0) (surviving fraction x log10(nM)); higher = more resistant; conditions: exposure time: 5 days; dose range 0.5-1000 nM
# Method in brief: (§2)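 Tumour cell lines in 384-well plates were exposed for five days to eight inhibitor concentrations from 0.5 to 1000 nM. Viability was read by CellTiter-Glo luminescence, normalised to DMSO-only wells, in three screens per line. Dose-response survival curves were fitted to surviving fractions by 3-parameter logistic regression in the drc R package. Area under the curve is the unscaled activity area (Aref = 0) over log10 dose.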
# [10] = compound: T2, SNX-5422; assay: as above; conditions: exposure time: 5 days; dose range 0.5-1000 nM
# Method in brief: as §2
# [11] = compound: T3, SAPACITABINE; assay: as above; conditions: exposure time: 5 days; dose range 0.5-1000 nM
# Method in brief: as §2
# [12] = compound: T4, BI-2536; assay: as above; conditions: exposure time: 5 days; dose range 0.5-1000 nM
# Method in brief: as §2
# [13] = compound: T5, AFATINIB; assay: as above; conditions: exposure time: 5 days; dose range 0.5-1000 nM
# Method in brief: as §2
# [14] = compound: T6, MDV3100; assay: as above; conditions: exposure time: 5 days; dose range 0.5-1000 nM
# Method in brief: as §2
# [15] = compound: Cn1cc(C2=Nc3cc(NC(=O)C(N)C4CCCCC4)cc4c3C2=CNNC4=O)cn1; assay: as above; conditions: exposure time: 5 days; dose range 0.5-1000 nM
# Method in brief: as §2
# [16] = compound: T7, TIOGUANINE; assay: as above; conditions: exposure time: 5 days; dose range 0.5-1000 nM
# Method in brief: as §2
test system,measurement,setting,value
HMLE3 BREAST,surviving fraction,[1]; 0.5 nM,0.883 ± 0.0092
same,surviving fraction,[1]; 1 nM,0.909 ± 0.082
same,surviving fraction,[1]; 5 nM,0.891 ± 0.044
same,surviving fraction,[1]; 10 nM,0.898 ± 0.018
same,surviving fraction,[1]; 50 nM,0.913 ± 0.024
same,surviving fraction,[1]; 100 nM,0.838 ± 0.14
same,surviving fraction,[1]; 500 nM,0.847 ± 0.028
same,surviving fraction,[1]; 1000 nM,0.872 ± 0.1
same,surviving fraction,[2]; 0.5 nM,0.975 ± 0.02
same,surviving fraction,[2]; 1 nM,1 ± 0.054
same,surviving fraction,[2]; 5 nM,0.999 ± 0.074
same,surviving fraction,[2]; 10 nM,1.09 ± 0.032
same,surviving fraction,[2]; 50 nM,0.0933 ± 0.011
same,surviving fraction,[2]; 100 nM,0.0567 ± 0.0045
same,surviving fraction,[2]; 500 nM,0.0233 ± 0.0015
same,surviving fraction,[2]; 1000 nM,0.027 ± 0.001
same,surviving fraction,[3]; 0.5 nM,0.846 ± 0.045
same,surviving fraction,[3]; 1 nM,0.738 ± 0.037
same,surviving fraction,[3]; 5 nM,0.898 ± 0.017
same,surviving fraction,[3]; 10 nM,0.244 ± 0.014
same,surviving fraction,[3]; 50 nM,0.892 ± 0.095
same,surviving fraction,[3]; 100 nM,0.67 ± 0.11
same,surviving fraction,[3]; 500 nM,0.344 ± 0.039
same,surviving fraction,[3]; 1000 nM,0.175 ± 0.0071
same,surviving fraction,[4]; 0.5 nM,1.04 ± 0.14
same,surviving fraction,[4]; 1 nM,1.09 ± 0.1
same,surviving fraction,[4]; 5 nM,0.819 ± 0.076
same,surviving fraction,[4]; 10 nM,0.216 ± 0.0056
same,surviving fraction,[4]; 50 nM,0.0467 ± 0.014
same,surviving fraction,[4]; 100 nM,0.0453 ± 0.015
same,surviving fraction,[4]; 500 nM,0.0567 ± 0.011
same,surviving fraction,[4]; 1000 nM,0.063 ± 0.007
same,surviving fraction,[5]; 0.5 nM,0.989 ± 0.042
same,surviving fraction,[5]; 1 nM,1.02 ± 0.034
same,surviving fraction,[5]; 5 nM,0.993 ± 0.054
same,surviving fraction,[5]; 10 nM,0.904 ± 0.074
same,surviving fraction,[5]; 50 nM,0.905 ± 0.035
same,surviving fraction,[5]; 100 nM,0.946 ± 0.04
same,surviving fraction,[5]; 500 nM,0.842 ± 0.087
same,surviving fraction,[5]; 1000 nM,0.77 ± 0.021
same,surviving fraction,[6]; 0.5 nM,0.981 ± 0.05
same,surviving fraction,[6]; 1 nM,0.951 ± 0.018
same,surviving fraction,[6]; 5 nM,0.984 ± 0.026
same,surviving fraction,[6]; 10 nM,0.946 ± 0.049
same,surviving fraction,[6]; 50 nM,0.975 ± 0.12
same,surviving fraction,[6]; 100 nM,1 ± 0.09
same,surviving fraction,[6]; 500 nM,0.98 ± 0.058
same,surviving fraction,[6]; 1000 nM,1.03 ± 0.083
same,surviving fraction,[7]; 0.5 nM,1.02 ± 0.013
same,surviving fraction,[7]; 1 nM,0.984 ± 0.069
same,surviving fraction,[7]; 5 nM,1.01 ± 0.069
same,surviving fraction,[7]; 10 nM,1.05 ± 0.1
same,surviving fraction,[7]; 50 nM,0.928 ± 0.015
same,surviving fraction,[7]; 100 nM,0.924 ± 0.05
same,surviving fraction,[7]; 500 nM,0.319 ± 0.049
same,surviving fraction,[7]; 1000 nM,0.0807 ± 0.0095
same,surviving fraction,[8]; 0.5 nM,0.914 ± 0.068
same,surviving fraction,[8]; 1 nM,0.902 ± 0.015
same,surviving fraction,[8]; 5 nM,0.95 ± 0.028
same,surviving fraction,[8]; 10 nM,0.974 ± 0.019
same,surviving fraction,[8]; 50 nM,0.97 ± 0.1
same,surviving fraction,[8]; 100 nM,0.945 ± 0.072
same,surviving fraction,[8]; 500 nM,0.905 ± 0.049
same,surviving fraction,[8]; 1000 nM,0.851 ± 0.09
same,area under dose-response curve,[9],2.91
same,area under dose-response curve,[10],1.89
same,area under dose-response curve,[11],2.03
same,area under dose-response curve,[12],1.26
same,area under dose-response curve,[13],3.07
same,area under dose-response curve,[14],3.23
same,area under dose-response curve,[15],2.79
same,area under dose-response curve,[16],3.06

# — the supplement of paper PMC6045584
